Assay results taken from US6555559B1, “5,6,7-trinor-4,8-inter-m-phenylene PGI2, derivative and drugs containing the same” (Toray Industries, Inc., priority 1998, dated 2003).
In brackets after ≈: the same amount, converted by molar mass.

Experiments:
Type in all cases: cell-based
[1] = tested on: Helicobacter pylori (three strains of ATCC43504, ATCC43526, and TK1402); assay: Antibacterial activity on Helicobacter pylori, disk method, lethal concentration (LC); conditions: culture 4 days
Protocol: A blank disk (produced by Beckton Deckinson Co.,) was placed in a brain heart infusion agar medium containing 7% horse blood and coated with Helicobacter pylori (three strains of ATCC43504, ATCC43526, and TK1402). The disk was soaked with 10 μl of a solution of a test compound in dimethylsulfoxide, and then cultured under microaerophilic conditions including 5% of O2, 10% of CO2 and 85% of N2 at 37° C. for 4 days. After the completion of culture, the diameter of a growth inhibition circle formed around the disk was measured, and the lethal concentration (LC) of each test compound was computed according to the computation expression of Hultmark et al. (The EMBO Journal, 2, 571-576, 1983).

[2] = tested on: human platelet aggregation; assay: Effect on human platelet aggregation (ADP-induced, in the presence of SQ-29548); conditions: human PRP, SQ-29548 added, aggregation induced with ADP, compound 10 μM; control 38 ± 4.9
Protocol: The blood collected from healthy persons was centrifuged to separate platelet-rich plasma (PRP) and platelet-poor plasma (PPP). […] Experiment was carried out for 3 examples per group.

[3] = tested on: Helicobacter pylori (2 ATCC strains and 25 clinical isolates); assay: Antibacterial activity on Helicobacter pylori, agar dilution MIC, 27 strains; conditions: for Growth inhibition rate: share of 27 strains inhibited
Protocol: As test strains, 2 commercial ATCC strains ([…] and TACC43526 strain) of Helicobacter pylori, and 25 clinical isolates were used. Each of the strains was inoculated into a brain heart infusion agar medium containing 7% horse blood, and cultured under microaerophilic conditions including 5% of O2, 10% of CO2 and 85% of N2 at 37° C. After culture for 3 to 4 days, colonies of each strain formed on the medium were collected, and suspended in a brain heart infusion medium containing 10% of fetal calf serum so that turbidity was McFarland No. 1 (the number of bacteria was about 3×10^8/ml) to form a test bacterial suspension. On the other hand, a test compound (compound 4) was dissolved in dimethylsulfoxide, and a diluent in a double dilution series was prepared with dimethylsulfoxide so that the final concentration of the solvent was 0.5%, to form a test drug solution. 100 μl of the test drug solution was mixed with 20 ml of a brain heart infusion agar medium containing 7% horse blood and about 45° C., and the resultant mixture was solidified by allowing to cool to form a test medium. Next, about 5 μl of test bacterial suspension was inoculated into the medium by using a micro planter, and then cultured under microaerophilic conditions including 5% of O2, 10% of CO2 and 85% of N2 at 37° C. for 4 days. […] The minimum concentration at which growth of 50% of the total 27 stains used in the test was inhibited was MIC50, and the minimum concentration at which growth of 90% the strains used was inhibited was MIC90.

For `COC(=O)CCc1cccc2c1OC1CC(OC(C)=O)C(C=C(F)C(=O)C(C)(C)Oc3ccccc3)C21` (stereo not drawn) [Example 1, 14-Fluoro-16-methyl-15-oxo-16-phenoxy-2,5,6,7,18,19,20-heptanor-4,8-inter-m-phenylene PGI2 Methyl Ester, 11-Acetate], the “Antibacterial activity (lethal concentration LC)” value (from here on “Antibacterial activity”) ([1]; Helicobacter pylori strain ATCC43504) was 141 ± 27 µM, the “Antibacterial activity” value ([1]; Helicobacter pylori strain ATCC43526) was 169 ± 6 µM and the “Antibacterial activity” value ([1]; Helicobacter pylori strain TK1402) was 151 ± 4 µM.
`CC(C)(Oc1ccccc1)C(O)C(F)=CC1C(O)CC2Oc3c(CCC(=O)O)cccc3C21` (stereo not drawn) [Example 3, 14-Fluoro-16-methyl-16-phenoxy-2,5,6,7,18,19,20-heptanor-4,8-inter-m-phenylene PGI2] showed a Platelet aggregation [2] of 54 ± 1.7%.
With `CC(C)(Oc1ccccc1)C(O)C(F)=CC1C(O)CC2Oc3c(CCC(=O)O)cccc3C21` (stereo not drawn) [Example 4, 14-Fluoro-16-methyl-16-phenoxy-15-epi-2,5,6,7,18,19,20-heptanor-4,8-inter-m-phenylene PGI2] the “Number of strains inhibited/total strains” value ([3]; concentration 12.5 μM) was 11/27, the Growth inhibition rate ([3]; concentration 12.5 μM) was 40.7% and the “Number of strains inhibited/total strains” value ([3]; concentration 25 μM) was 20/27. For the same compound, the Growth inhibition rate ([3]; concentration 25 μM) was 74.1%, the “Number of strains inhibited/total strains” value ([3]; concentration 50 μM) was 26/27 and the Growth inhibition rate ([3]; concentration 50 μM) was 96.3%. For the same compound, the MIC50 ([3]; minimum concentration inhibiting growth of 50% of the total 27 strains) was 12.5 µM (≈ 5.71 µg/mL) and the MIC90 ([3]; minimum concentration inhibiting growth of 90% of the total 27 strains) was 50 µM (≈ 22.8 µg/mL).
